Results taken from patent US20220395553A1, “CXCR4 ANTAGONIST PEPTIDES” (COHBAR, INC., priority 2019, published 2022).
Square brackets hold non-standard residues; d marks the D form. Ends that are not written are not given here. Peptide text beside a SMILES is read from it.

Columns and labels:
[1] = test system: B16F10, mouse melanoma cell line; assay: Tumor growth in B16F10 syngeneic mouse cancer model; format: in vivo; conditions: peptide 10 mg/kg QD subcutaneous, temozolomide 50 mg/kg TIW oral gavage; for Mean (SEM) Percent Reduction in Tumor Volume vs Control: Day 11, relative to vehicle control; for Mean (SEM) Tumor Volume on Day 11: female C57Bl/6 mice, 8-10 animals per arm
Method: The effect of the peptides on tumor growth can be assessed by monitoring tumor volume in a syngeneic mouse cancer model, such as B16F10, mouse melanoma cell line. The study was performed by HD Biosciences/WuXi (San Diego, Calif.). B16F10 cells were expanded in culture for a maximum of five passages prior to implantation, until growing exponentially when harvested. On Day 0, B16F10 cells (0.2×10^6 cells in […] serum free media; >95% viable tumor cells) were implanted into the right hind flank of female C57Bl/6 mice. When a mean tumor volume of approximately 100 mm^3 (range 75-125 mm^3) was reached, tumor-bearing animals were randomized and treatments were initiated on the same day. Test peptides were resuspended in phosphate buffered saline (PBS) and administered once daily (QD) by subcutaneous injection at 10 mg/kg in 5.0 ml/kg vehicle. Vehicle (PBS) was administered QD by intraperitoneal injection in 5 ml/kg. Temozolomide was administered three times per week (TIW) by oral gavage at 50 mg/kg in 5.0 ml/kg vehicle. Animals were inspected daily over the course of 11 days for abnormalities. Tumor volumes were determined by calliper measurements twice per week and calculated according to the formula: V (mm^3)=W^2×L/2 (L=length and W=the perpendicular width of the tumor, L>W). Data are presented as the mean (SEM) of 8-10 animals per arm for tumor volume on Day 11 and percent decrease in tumor volume relative to vehicle control treatment. Treatment with a combination of test peptide and temozolomide produced a greater reduction in tumor volume compared to either vehicle control treatment or treatment with temozolomide alone.

human CXCR4 [2] = target: T1, human CXCR4 (Homo sapiens, UniProt P61073); assay: CXCR4/CXCL12 binding, HTRF format, single concentration (Example 23); design: host or cells: HEK293 (Tag-lite CXCR4 cells, frozen aliquots, transient expression); conditions: 15 nM CXCR4R fluorescent probe, 3 hours, HEK293 Tag-lite CXCR4 cells
T1 sequence (P61073 whole entry): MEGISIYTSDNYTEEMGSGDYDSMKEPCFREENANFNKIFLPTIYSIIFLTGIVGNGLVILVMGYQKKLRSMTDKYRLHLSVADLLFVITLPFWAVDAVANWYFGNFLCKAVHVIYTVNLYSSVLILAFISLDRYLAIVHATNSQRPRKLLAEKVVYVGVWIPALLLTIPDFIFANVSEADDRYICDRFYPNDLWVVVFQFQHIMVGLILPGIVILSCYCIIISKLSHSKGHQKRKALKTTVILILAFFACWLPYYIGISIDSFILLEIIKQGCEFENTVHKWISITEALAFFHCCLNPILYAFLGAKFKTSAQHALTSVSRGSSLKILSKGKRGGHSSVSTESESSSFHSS
In short: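 Tag-lite CXCR4 cells were exposed to peptide at 400 nM final with 15 nM (EC80) fluorescent CXCR4 probe for 3 h at room temperature. HTRF was read, and the 665/620 nm ratio ×10,000 measured probe bound to terbium-labelled receptor.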

[3] = test system: CXCR4/CXCL12 induced p-MEK; assay: CXCR4/CXCL12 induced p-MEK in Jurkat cells (ELISA); format: cell-based, human; conditions: 5 nM CXCL12, 5 min
In short: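 Jurkat cells in RPMI+GlutaMax containing 10% FBS and 1% penicillin/streptomycin, fresh or conditioned, were resuspended at 2×10^6 cells/ml and […] aliquots placed in tubes. After a 5 min stimulation they were pelleted, rinsed with HBSS and lysed with PMSF and protease/phosphatase inhibitors. Phospho-MEK1 (Ser217/221) was quantified by sandwich ELISA with absorbance read at 450 nm.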

Jurkat cells = assay: CXCL12 mediated cell migration, Jurkat cells; format: cell-based, human; conditions: 1.1 μM test article, 100 ng/ml CXCL12, 1 hour
In short: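 Jurkat cells in serum-free RPMI with 0.5% BSA, 250,000 per upper chamber of a 5 μm Transwell, with peptides at 1.1 μM final. Migration toward CXCL12 ran 1 h at 37 °C in 5% CO2. Cells reaching the lower chamber quantified by ATP luminescence (CellTiter-Glo 2.0).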

human CXCR4 [4] = target: T1, human CXCR4; assay: IC50 for CXCR4/CXCL12 ligand binding, HTRF format (Example 24); design: host or cells: HEK293 (Tag-lite CXCR4 cells, frozen aliquots, transient expression)
Method: Peptides were initially prepared as 1 mM stock in H2O. […] Following the manufacture's protocol, a frozen aliquot of Tag-lite CXCR4 cells was thawed and immediately seeded onto 384-well plates in TLB. […] The plates were covered in aluminum foil and left at room temperature for 3 hours. Following the 3 hour incubation period, the plates were removed from the incubator and fluorescence measured using a Cytation 1 plate reader using a HTRF filter cube ([…]; BioTek; Winooski, Vt.).

human CXCR4 [5] = target: T1, human CXCR4; assay: IC50 for inhibition of CXCR4 activation, β-Arrestin recruitment (Example 22); format: cell-based; design: host or cells: C2C12 (mouse myoblast) CXCR4 β-Arrestin PathHunter cell line
In short: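 C2C12 cells co-expressing ProLink-tagged human CXCR4 and Enzyme Acceptor-tagged β-arrestin (PathHunter). Peptides tested in 10-point, 3-fold dilutions from 1 μM (1 μM–0.05 nM). Recruitment read by chemiluminescent enzyme-fragment complementation after 90 min incubation.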

C2C12 Mouse Myoblasts = assay: Glucose utilization in C2C12 mouse myoblasts; format: cell-based; conditions: metformin 1 mM
Method: The effect of the peptides on glucose metabolism can be assessed using an assay of glucose utilization in cultured cultured cells such as mouse myoblasts. Peptides were initially prepared as 10 mM stock in DMSO and used at a final concentration of 10 μM (0.1% DMSO). C2C12 mouse myoblast cell line was purchased from American Type Culture Collection (Manassas, Va.). C2C12 cultures were maintained at 37° C. in a humidified atmosphere of 5% CO2/95% air with medium changes every second day. C2C12 cells were grown in DMEM (1 g/L glucose) supplemented with 10% FBS with 100 IU/ml penicillin and 100 μg/ml streptomycin. C2C12 cells were seeded at 7,000 cells per well on 96-well plates and cultured to confluence. Once the cell reached confluence the media was changed to DMEM (1 g/L glucose) supplemented with 2% HS with 100 IU/ml penicillin and 100 μg/ml streptomycin and maintained at 37° C. in a humidified atmosphere of 5% CO2/95% air, 5 days post-induction of differentiation fresh DMEM (1 g/L glucose) supplemented with 2% HS with 100 IU/ml penicillin and 100 μg/ml streptomycin was added to cultures. Cells were maintained at 37° C. in a humidified atmosphere of 5% CO2 and 95% air for 5 hours. After 5 hours test peptides at 10 μM or controls (0.5 mM or 1 mM metformin in 1% DMSO) prepared in fresh differentiation medium were added to cells and the cultures were maintained at 37° C. in a humidified atmosphere of 5% CO2/95% air for 18-22 hours. At the end of the incubation culture media was removed from the cells and the remaining glucose concentration was measured using a Glucose Assay kit (Abcam) according to the manufacturer's instructions, using a Cytation 3 plate reader at 570 nm (BioTek, Winooski, Vt.). Glucose concentrations in the medium were calculated relative to 0.1% DMSO treated control cells. The relative standard deviation of the result for the 0.1% DMSO treated control was <20%. Metformin was used as a positive control for reduction of glucose levels (increased glucose utilization glucose levels for treatment with metformin (1 mM) treatment were <20% of the 0.1% DMSO treated control value. The results are reported in Table 7.

3T3-L1 Mouse Adipocytes = assay: Free fatty acid levels in cultured mouse adipocytes; format: cell-based; conditions: insulin 100 nM
Method: The effect of the peptides on fatty acid metabolism can be assessed using an assay of free fatty acid levels in cultured cells such as mouse adipocytes. Peptides were initially prepared as 10 mM stock in DMSO and used at a final concentration of 10 μM (0.1% DMSO). […] Mouse 3T3-L1 cells purchased from ZenBio were seeded at 3,000 cells per well in 96-well plates in Pre-adipocyte Medium (Zen-Bio) and grown to confluence at 37° C. in a humidified atmosphere of 5% CO2/95% air. Two days after confluence, cells were placed in Adipocyte Differentiation Medium (Zen-Bio) and cultured for three additional days at 37° C. in a humidified atmosphere of 5% CO2/95% air. The culture media was then replaced with Adipocyte Maintenance Medium (Zen-Bio) and the cells maintained for an additional 9-12 days at 37° C. in a humidified atmosphere of 5% CO2/95% air with partial medium replacement every other day. Following 12-15 days of differentiation, test peptides were added at a final concentration of 10 μM in 0.1% DMSO and incubated for 20-22 hours in Adipocyte Maintenance Medium at 37° C. in a humidified atmosphere of 5% CO2/95% air. After 20-22 hours, 1 nM isoproterenol was added to all wells except untreated controls and test peptides were replenished. Insulin at 100 nM was added to control wells. Cells were incubated for 3 hours in Assay Buffer (Zen-Bio) at 37° C. in a humidified atmosphere of 5% CO2/95% air. Free fatty acid concentrations in the media were determined using a Free Fatty Acid Assay kit (Zen-Bio) according to the manufacturer's instructions using a Cytation 3 plate reader at 540 nm (BioTek, Winooski, Vt.). Absorbance values were corrected for untreated background and expressed relative to isoproterenol treated cells. Treatment with isoproterenol (1 nM) alone was used as the free fatty acid level stimulatory control. The relative standard deviation of the isoproterenol control was <10%. […] Free fatty acid levels for insulin (100 nM) treatment were <5% of the isoproterenol control value.

In the case of Cn1nnc2c(C(N)=O)ncn2c1=O [Temozolomide, reference compound], the “Mean (SEM) Percent Reduction in Tumor Volume vs Control” value (“Mean (SEM) Percent Reduction” for short) [1] is reported as 37.9% and the “Mean (SEM) Tumor Volume on Day 11” value [1] is reported as 1190 mm^3.
For CC(C)C[C@H](NC(=O)[C@H](CO)NC(=O)[C@H](CO)NC(=O)[C@H](CCCNC(=N)N)NC(=O)[C@@H](NC(=O)[C@H](CO)NC(=O)[C@H](Cc1c[nH]cn1)NC(=O)[C@H](Cc1c[nH]cn1)NC(=O)[C@H](Cc1ccc(O)cc1)NC(=O)[C@H](CCCNC(=N)N)NC(=O)[C@H](CCC(=O)O)NC(=O)[C@@H](N)CC(C)C)C(C)C)C(=O)N[C@@H](CCCNC(=N)N)C(=O)N1CCC[C@H]1C(=O)N[C@@H](Cc1ccc(O)cc1)C(=O)N[C@@H](CO)C(=O)N[C@@H](CCCCN)C(=O)O [compound 75] (H-LERYHHSVRSSLRPYSK-OH; N-terminus and C-terminus assumed), the “Percent Inhibition of CXCR4/CXCL12 Binding (400 nM peptide)” value (human CXCR4 [2]) was 81%, the “Percent Inhibition of CXCR4/CXCL12 Induced p-MEK (100 nM Test Article)” value [3] was 60% and the “Percent Inhibition of CXCR4/CXCL12 Induced p-MEK (1 μM Test Article)” value [3] was 100%. For the same molecule, the “Percent Inhibition of CXCL12 Mediated Migration (1.1 μM Test Article)” value (Jurkat cells) was 81%, the IC50 (human CXCR4 [4]) was 11 nM and the IC50 (human CXCR4 [5]) was 4 nM.
In the case of CC(C)C[C@H](NC(=O)[C@H](CO)NC(=O)[C@H](CO)NC(=O)[C@H](CCCNC(=N)N)NC(=O)[C@@H](NC(=O)[C@H](CO)NC(=O)[C@H](Cc1c[nH]cn1)NC(=O)[C@H](Cc1c[nH]cn1)NC(=O)[C@H](Cc1ccc(O)cc1)NC(=O)[C@H](CCCNC(=N)N)NC(=O)[C@H](CCC(=O)O)NC(=O)[C@@H](N)CC(C)C)C(C)C)C(=O)N[C@@H](CCCNC(=N)N)C(=O)NCC(=O)N[C@@H](Cc1ccc(O)cc1)C(=O)N[C@H](C(=O)N[C@@H](CCCCN)C(=O)O)[C@@H](C)O [compound 80] (H-LERYHHSVRSSLRGYTK-OH; N-terminus and C-terminus assumed), the “Percent Inhibition of CXCR4/CXCL12 Binding (400 nM peptide)” value (human CXCR4 [2]) is reported as 88%, the “Percent Inhibition of CXCR4/CXCL12 Induced p-MEK (100 nM Test Article)” value [3] is reported as 52% and the “Percent Inhibition of CXCR4/CXCL12 Induced p-MEK (1 μM Test Article)” value [3] is reported as 96%. For the same molecule, the “Percent Inhibition of CXCL12 Mediated Migration (1.1 μM Test Article)” value (Jurkat cells) was 71%, the IC50 (human CXCR4 [4]) was 6 nM and the IC50 (human CXCR4 [5]) was 4 nM.
CN(C)C(=N)N=C(N)N [metformin, Metformin, reference compound] was tested, and the “Glucose levels, % of 0.1% DMSO treated control value” (C2C12 Mouse Myoblasts) was < 20%.
In the case of Insulin [reference compound], the “Free fatty acid levels, % of isoproterenol control value” (3T3-L1 Mouse Adipocytes) is reported as < 5%.
In the case of “LERYHHS(dA)RSSLRPYT (LERYHHS[dA]RSSLRPYT) [SEQ ID NO: 5]”, the “Mean (SEM) Percent Reduction” value [1] is reported as 7.2% and the “Mean (SEM) Tumor Volume on Day 11” value [1] is reported as 1770 mm^3.
With “LERYHHSVRSSLRPYTK (LERYHHSVRSSLRPYTK-NH2) [SEQ ID NO: 4]” the “Mean (SEM) Percent Reduction” value [1] was 14.9% and the “Mean (SEM) Tumor Volume on Day 11” value [1] was 1620 mm^3.
